{
  "source": "patent US20040186022A1",
  "about": "“Enhanced herbicides” (priority 1999, published 2004)",
  "key": {"[1]": {"tested_on": "40 G/a: crab grass, chickweed and common lambsquarter; 60 G/a: redtop, pigweed, foxtail; spray to drip: barnyard grass, foxtail, sudan grass and nutsedge", "test": "Herbicidal combinations of caprylic/capric (c/c) or pelargonic acid with equimolar succinic acid and ammonium succinate, on weed varieties", "format": "in vivo", "settings": "footnote"}, "[2]": {"test": "Measurement of pH values for test desiccants (Example 56)", "format": "physicochemical"}, "[3]": {"tested_on": "60 G/a: lambsquarter, pigweed, velvetleaf and foxtail; spray to drip: velvetleaf and foxtail", "test": "Herbicidal activity of caprylic acid combined with salts of succinate +/- sodium salicylate", "format": "in vivo", "excerpt": "(§1) The herbicides were applied in the “spray to drip” amount or at a calibrated 20-60 gallons/acre. “Spray to drip” is an uncalibrated application of fluid to foliage, where sufficient spray volume is used to sufficiently saturate the foliage surface until excess fluid begins to drip from the foliage."}, "[4]": {"tested_on": "60 G/a: black nightshade, redroot pigweed, lambsquarter, foxtail, velvetleaf and snapbeans; spray to drip: redroot pigweed, lambsquarter, velvetleaf and …", "test": "Efficacy of 2% caprylic with succinic or ammonium succinate in an emulsification system (Emsorb 6900)", "format": "in vivo", "excerpt": "as §1"}, "[5]": {"tested_on": "young potato plants", "test": "Effects of desiccants and desiccant combinations with other compounds on young potato plants", "format": "in vivo", "parameters": "All evaluations (total score): scale not given here", "excerpt": "as §1"}, "[6]": {"tested_on": "60 G/a: lambsquarter, pigweed and velvetleaf; spray to drip: lambsquarter and foxtail", "test": "Herbicidal activity of caproic acid with succinic acid and sodium salicylate", "format": "in vivo", "excerpt": "as §1"}, "[7]": {"tested_on": "soybeans", "test": "Synergistic relationships: succinic acid + caprylic acid, succinic acid + sodium salicylate, testing soybeans", "format": "in vivo", "settings": "3 days after a single foliar application, soybean Stine 2250", "excerpt": "as §1"}, "[8]": {"tested_on": "Potato, variety Katahdin", "test": "Potato field trial: 2 applications of selected herbicides, including Desiccate II", "format": "in vivo", "settings": "scale 1-5", "excerpt": "as §1"}, "[9]": {"tested_on": "navy dry beans (navy Vista)", "test": "Synergistic interactions of succinic acid and di-ammonium succinate with herbicidal compounds, navy dry beans", "format": "in vivo, dry bean (navy)", "settings": "for Injury rating, average per plot: scale 1-5", "excerpt": "as §1"}, "[10]": {"tested_on": "black beans (dry bean variety T39)", "test": "Synergistic interactions of succinic acid and di-ammonium succinate with other herbicidal compounds, dry beans (black)", "format": "in vivo", "settings": "for Injury rating, average per plot: scale 1-5", "excerpt": "as §1"}, "[11]": {"tested_on": "60 G/a: black nightshade, redroot pigweed, foxtail, lambsquarter and snapbeans; spray to drip: redroot pigweed, velvetleaf, nutsedge and foxtail", "test": "Efficacy of 3% caprylic with succinic or ammonium succinate in an emulsification system (Emsorb 6900)", "format": "in vivo", "excerpt": "as §1"}, "[12]": {"tested_on": "60 G/a: velvetleaf, black nightshade, redroot pigweed, foxtail and snapbeans; spray to drip: black nightshade, velvetleaf, foxtail and snapbeans", "test": "Efficacy of 1.5% succinic acid with oleic, caprylic or pelargonic acid in an emulsification system (Emsorb 6900)", "format": "in vivo", "parameters": "Injury rating, total score for 2 evaluation, Spray to drip / Injury rating, total score for 2 evaluation, Total Rating: scale not given here", "excerpt": "as §1"}, "[13]": {"tested_on": "plants", "test": "Herbicidal activity: comparison of caprylic, pelargonic and an equimolar mixture of caprylic and pelargonic acids", "format": "in vivo", "excerpt": "The herbicides were applied in the “spray to drip” amount or at a calibrated 20-60 gallons/acre. “Spray to drip” is an uncalibrated application of fluid to foliage, where sufficient spray volume is used to sufficiently saturate the foliage surface until excess fluid begins to drip from the foliage. In general, about 5 to 200 gallons/acre, preferably 20-100 gallons/acre can be effective."}, "[14]": {"tested_on": "soybeans", "test": "Synergy comparisons of various organic acids with caprylic acid, testing soybeans", "format": "in vivo", "settings": "3 days after a single foliar application, average of 2 sites, soybean Stine 2250", "excerpt": "as §1"}, "[15]": {"test": "Measurement of pH values for test desiccants (Example 55)", "format": "physicochemical"}, "[16]": {"settings": "60 G/a, rating 1-5 per pot, 1% Emsorb, 0.3% Hasten"}},
  "data": [
    {"smiles": "N.N.O=C(O)CCC(=O)O", "note": "[ammonium succinate]", "values": [
      {"measurement": "Rating of additive tested alone", "setting": "[1]", "value": "Since succinic acid (or ammonium succinate) tested alone had a rating of zero, pelargonic acid (or c/c) + succinic acid (or ammonium succinate) were synergistic. The exception was: 3% pelargonic acid + 1.26% ammonium succinate"}
    ]},
    {"smiles": "NCCC(=O)O", "note": "[Beta-Alanine (0.5%)]", "values": [
      {"measurement": "pH Value", "setting": "[2]", "value": 6.65}
    ]},
    {"smiles": "CCCCCCCC(=O)O", "note": "[2% caprylic, caprylic acid]", "values": [
      {"measurement": "Total Injury ratings, Total score", "setting": "[3]; 60 G/a plus spray to drip", "value": 69.2},
      {"measurement": "Total injury ratings, 60 G/a", "setting": "[3]; 60 G/a, 8 pots/treatment, 2 evaluations, rating 1-5 per pot, 1% Emsorb 6900", "value": 61},
      {"measurement": "Total injury ratings, Spray to drip", "setting": "[3]; spray to drip, 2 pots/treatment, velvetleaf and foxtail, 1 evaluation", "value": 8.2},
      {"measurement": "Injury rating, total score for 2 evaluations, Total Rating", "setting": "[4]; 60 G/a plus spray to drip", "value": 123.4},
      {"measurement": "Injury rating, total score for 2 evaluations, 60 G/a", "setting": "[4]; [16]", "value": 73.6},
      {"measurement": "Average rating per pot", "setting": "[4]; scale 1-5", "value": 4.11},
      {"measurement": "Injury rating, total score for 2 evaluations, Spray to drip", "setting": "[4]; spray to drip", "value": 49.8},
      {"measurement": "Injury ratings of treated plants, day 1", "setting": "[5]; 1 day after application, 6 = complete desiccation", "value": 5},
      {"measurement": "Injury ratings of treated plants, day 3", "setting": "[5]; 3 days after application, 6 = complete desiccation", "value": 5},
      {"measurement": "Injury ratings of treated plants, day 6", "setting": "[5]; 6 days after application, 6 = complete desiccation", "value": 5},
      {"measurement": "Injury ratings of treated plants, day 17", "setting": "[5]; 17 days after application, 6 = complete desiccation", "value": 5},
      {"measurement": "Injury ratings of treated plants, day 22", "setting": "[5]; 22 days after application, 6 = complete desiccation", "value": 5.5},
      {"measurement": "Injury ratings of treated plants, day 27", "setting": "[5]; 27 days after application, 6 = complete desiccation", "value": 5.5},
      {"measurement": "Injury ratings of treated plants, […]", "setting": "[5]; […] after application, 6 = complete desiccation", "value": 3.5},
      {"measurement": "All evaluations (total score)", "setting": "[5]; total of all evaluation times", "value": 34.5}
    ]},
    {"smiles": "CCCCCC(=O)O", "note": "[2% caproic, caproic acid]", "values": [
      {"measurement": "Total Injury ratings, Total score", "setting": "[6]; 60 G/a plus spray to drip", "value": 18.5},
      {"measurement": "Total injury ratings, 60 G/a", "setting": "[6]; 60 G/a, 4 pots/treatment, lambsquarter, pigweed and velvetleaf, rating 1-5 per pot", "value": 11.2},
      {"measurement": "Total injury ratings, Spray to drip", "setting": "[6]; spray to drip, 2 pots/treatment, lambsquarter and foxtail", "value": 7.3}
    ]},
    {"smiles": "CCCCCCCC(=O)O", "note": "[Caprylic Acid (1%)]", "values": [
      {"measurement": "Foliage Affected (%)", "setting": "[7]", "value": "25-30%"},
      {"measurement": "Overall Effect", "setting": "[7]; 5 equals profound desiccation", "value": 2.5}
    ]},
    {"smiles": "CCCCCCCCC(=O)O", "note": "[5% pelargonic, pelargonic acid]", "values": [
      {"measurement": "Injury rating, average per plot", "setting": "[8]; Day 1, 40-42 G/acre, 2nd treatment 2 days after 1st", "value": 4.07},
      {"measurement": "Injury rating, average per plot", "setting": "[8]; Day 2", "value": 4},
      {"measurement": "Injury rating, average per plot", "setting": "[8]; Day 3", "value": 4.13},
      {"measurement": "Injury rating, average per plot", "setting": "[8]; Day 5", "value": 4.43}
    ]},
    {"smiles": "CCCCCCCC(=O)O", "note": "[3% caprylic, caprylic acid]", "values": [
      {"measurement": "Injury rating, average per plot", "setting": "[9]; Day 1, one application at 40 G/acre, treatments 1-4, 9-11 in Emsorb 6900/mineral oil/Hasten, 5-8, 12-14 in 0.3% Sylgard 309", "value": 3.5},
      {"measurement": "Injury rating, average per plot", "setting": "[9]; Day 2", "value": 3.93},
      {"measurement": "Injury rating, average per plot", "setting": "[9]; Day 3", "value": 3.93},
      {"measurement": "Injury rating, average per plot", "setting": "[9]; Day 4", "value": 4},
      {"measurement": "% desiccation (Day 12), foliage", "setting": "[9]; Day 12, foliage", "value": 50, "unit": "%"},
      {"measurement": "% desiccation (Day 12), pods", "setting": "[9]; Day 12, pods", "value": 80, "unit": "%"},
      {"measurement": "% desiccation (Day 12), vines", "setting": "[9]; Day 12, vines", "value": 10, "unit": "%"},
      {"measurement": "Injury rating, average per plot", "setting": "[9]; Day 12", "value": 4.2},
      {"measurement": "Injury rating, average per plot", "setting": "[10]; Day 2, one application at 40 G/acre, treatments 1-4, 9-11 in Emsorb 6900/mineral oil/Hasten, 5-8, 12-14 in 0.3% Sylgard 309", "value": 4},
      {"measurement": "% desiccation (Day 12), foliage", "setting": "[10]; Day 12, foliage", "value": 80, "unit": "%"},
      {"measurement": "% desiccation (Day 12), pods", "setting": "[10]; Day 12, pods", "value": 95, "unit": "%"},
      {"measurement": "% desiccation (Day 12), vines", "setting": "[10]; Day 12, vines", "value": 92, "unit": "%"},
      {"measurement": "Injury rating, average per plot", "setting": "[10]; Day 12", "value": 4.73},
      {"measurement": "Injury rating, total score for 2 evaluations, Total Rating", "setting": "[11]; 60 G/a plus spray to drip", "value": 178.4},
      {"measurement": "Injury rating, total score for 2 evaluations, 60 G/a", "setting": "[11]; [16]", "value": 142},
      {"measurement": "Average rating per pot", "setting": "[11]; scale 1-5", "value": 4.05},
      {"measurement": "Injury rating, total score for 2 evaluations, Spray to drip", "setting": "[11]; spray to drip", "value": 36.6},
      {"measurement": "Injury rating, total score for 2 evaluation, Total Rating", "setting": "[12]; 60 G/a plus spray to drip", "value": 123.5},
      {"measurement": "Injury rating, total score for 2 evaluation, 60 G/a", "setting": "[12]; [16]", "value": 88.1},
      {"measurement": "Average rating per pot", "setting": "[12]; scale 1-5", "value": 4.41},
      {"measurement": "Injury rating, total score for 2 evaluation, Spray to drip", "setting": "[12]; spray to drip", "value": 35.4},
      {"measurement": "Injury ratings based on 2 independent evaluations, 40 G/acre", "setting": "[13]; 40 G/acre: chickweed, redroot pigweed, lambsquarter and green foxtail, each pot rated 1 to 5", "value": 40.8},
      {"measurement": "Injury ratings based on 2 independent evaluations, 60 G/acre", "setting": "[13]; 60 G/acre: chickweed, redroot pigweed, lambsquarter, green foxtail, crabgrass and wheat, each pot rated 1 to 5", "value": 51.6},
      {"measurement": "Average rating per pot", "setting": "[13]; rating 1 to 5, 5 = complete desiccation of all plants", "value": 4.16}
    ]},
    {"smiles": "O=C(O)C(O)C(O)C(=O)O", "note": "[L-Tartaric Acid (0.5%)]", "values": [
      {"measurement": "Foliage Affected (%)", "setting": "[14]", "value": 0, "unit": "%"},
      {"measurement": "Overall Effect", "setting": "[14]; 5 equals profound desiccation", "value": 0},
      {"measurement": "pH Value", "setting": "[15]", "value": 1.52},
      {"measurement": "pH Value", "setting": "[2]", "value": 1.72}
    ]}
  ]
}
